# Experimental data: US20150250782A1, “Methods and Compositions for Hypotensive Resuscitation” (Pharmazz, Inc., priority 2012, published 2015)
# Columns and labels:
# α2 adrenergic receptors = experiment: Centhaquin resuscitation with and without α2 adrenergic antagonists: arterial blood hematocrit, pH, gases, electrolytes, lactate; assay type: in vivo, rat; settings: hemorrhaged rats
# hemorrhaged rats = settings: Gill, Pelit et al. 2011; cited from earlier work
# [1] = tested on: urethane anesthetized rats; experiment: Cardiovascular effects in urethane anesthetized rats, centhaquin vs centhaquin citrate; assay type: in vivo, rat; settings: 0.05, 0.15, 0.45 mg/kg; 60 minute period; mean blood pressure, pulse pressure, heart rate, cardiac output, stroke volume, stroke work
# Protocol: In these plots, centhaquin is tested as the free base in amounts of 0.05, 0.15, and 0.45 mg/kg. Similarly, centhaquin citrate dihydrate is tested in amounts of 0.05, 0.15, and 0.45 mg/kg. These amounts of centhaquin citrate are equivalent to 0.030, 0.089, and 0.267 mg/kg of centhaquin as the free base.
# rats in endotoxic shock = experiment: Endotoxic shock induced by E. coli LPS in rats; assay type: in vivo; settings: 0.05 mg/kg after LPS 30 mg/kg iv; one rat, sacrificed at the end of experiment; vehicle rat died after 270 min
# Protocol: FIG. 14 illustrates the efficiency of a low dose of centhaquin citrate in the treatment of septic shock. In the tests summarized in FIG. 14, anaesthetized rats were immobilized on a surgical board and an incision was made above the femoral vein and artery. The vessels were cleaned and isolated. Heart rate and mean arterial pressure were measured by cannulating left femoral artery with pressure transducer SPR-320 (Millar Instruments), connected to a ML221 bridge amplifier (AD Instruments) through AEC-10C connector and the signals were acquired (1000 S^−) using PowerLab 16/30. Left femoral veins were secured for drug administration using PE 50 tubing (Clay Adams, Parsipanny, N.J.). Right femoral artery was cannulated for blood drawings using PE 50 tubing (Clay Adams, Parsipanny, N.J.). After completion of the surgery, animals were maintained in a steady state for 30 minutes before administration of Lipopolysaccharide (LPS). Endotoxic shock was induced by intravenous injection of E. coli LPS O111:B4 (Sigma Chemical, St. Louis, Mo.) dissolved to a concentration of 10 mg in 0.1 ml of normal saline and a dose of 30 mg/kg was administered. Resuscitation (R) was performed either with vehicle (saline) or with centhaquin citrate (0.05 mg/kg). The rat treated with vehicle has lower blood pressure compared to the rat treated with centhaquin. […]
structure (smiles),measurement,setting,value
"CCC1(c2cnc[nH]2)Cc2ccccc2C1 [atipamezole, reference compound]",effect of the α2 adrenergic antagonist on the resuscitative effect of centhaquin,α2 adrenergic receptors,completely blocked
N=C(N)NCCCCN [Agmatine],resuscitative effect,hemorrhaged rats,effective resuscitation agent
same,resuscitative effect in presence of yohimbine,hemorrhaged rats,completely blocked
"COC(=O)[C@@H]1[C@H]2C[C@H]3c4[nH]c5ccccc5c4CCN3C[C@@H]2CC[C@@H]1O [yohimbine, reference compound]",effect of the α2 adrenergic antagonist on the resuscitative effect of centhaquin,α2 adrenergic receptors,completely blocked
Cc1cccc(N2CCN(CCc3ccc4ccccc4n3)CC2)c1.O=C(O)CC(O)(CC(=O)O)C(=O)O [centhaquin citrate],cardiovascular effects compared to centhaquin free base at same mg/kg dose,[1],substantially outperformed centhaquin free base
same,survival,rats in endotoxic shock,360 min
